Laboratory results as given in US11319306B2, “Compositions and methods for treating neurodegenerative diseases” (Azevan Pharmaceuticals, Inc., priority 2014, dated 2022).

Target: T1, human V1a receptor (Homo sapiens, UniProt P37288)
T1 construct: host or cells: CHO cells (hV1a cell line)
Test: Human vasopressin V1a receptor binding assay (3H-AVP competition, hV1a CHO cells)
Conditions: 3H-AVP competition, CHO cells expressing human V1a; for Ki: read-out: V1a Ki; for IC50: read-out: V1a Binding Affinity IC50
Protocol: Human vasopression V1a receptor binding assay. A cell line expressing the human V1a receptor in CHO cells (henceforth referred to as the hV1a cell line) was obtained from Dr. Michael Brownstein, NIMH, Bethesda, Md., USA. The hV1a cDNA sequence is described by Thibonnier et al., Journal of Biological Chemistry, 269, 3304-3310 (1994), and the expression method was the same as described by Morel et al. (1992). The hV1a cell line was grown in alpha-MEM with 10% fetal bovine serum and 250 ug/ml G418 (Gibco, Grand Island, N.Y., USA). For competitive binding assay, hV1a cells were plated into 6-well culture plate at 1:10 dilution from a confluency flask, and maintained in culture for at least two days. Culture medium was then removed, cells were washed with 2 ml binding buffer (25 mM Hepes, 0.25% BSA, 1×DMEM, PH=7.0). To each well, 990 μl binding buffer containing InM 3H-AVP was added, and followed by 10 μl series diluted Example compounds dissolved in DMSO. […] 100 nM cold AVP (Sigma) was used to assess non-specific binding. Cells were incubated for 45 minutes at 37° C., assay mixture was removed and each well was washed three times with PBS (pH=7.4). 1 ml 2% SDS was added per well and plates were let sit for 30 minutes. The whole content in a well was transferred to a scintillation vial. Each well was rinsed with 0.5 ml PBS which was then added to the corresponding vial. Scintillation fluid (Ecoscint, National Diagnostics, Atlanta, Ga.) was then added at 3 ml per vial. Samples were counted in a liquid scintillation counter (Beckman LS3801). IC50 values were calculated by Prism Curve fitting software.
All of the alkanedioic esters and amides exemplified in the foregoing examples dissolved in DMSO were tested in this assay. Binding curves were generated according to methods described by Thibonnier et al. (1994). [^3H]-AVP was added to the hV1a cell cultures followed by 10-fold dilutions of each test compound.

T1 sequence (P37288 whole entry): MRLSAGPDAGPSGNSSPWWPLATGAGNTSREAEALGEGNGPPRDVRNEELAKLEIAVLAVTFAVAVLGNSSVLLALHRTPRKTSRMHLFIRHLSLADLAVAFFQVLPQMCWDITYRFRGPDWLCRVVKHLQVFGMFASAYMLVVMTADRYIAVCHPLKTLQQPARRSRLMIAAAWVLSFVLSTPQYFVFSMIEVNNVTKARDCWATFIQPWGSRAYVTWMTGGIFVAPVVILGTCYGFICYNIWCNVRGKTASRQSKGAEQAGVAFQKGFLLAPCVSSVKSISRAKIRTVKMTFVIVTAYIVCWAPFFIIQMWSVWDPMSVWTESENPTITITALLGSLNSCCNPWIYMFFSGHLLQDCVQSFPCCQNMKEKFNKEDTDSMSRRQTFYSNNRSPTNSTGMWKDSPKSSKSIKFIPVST

| SMILES | Ki [nM] | IC50 [nM] |
| --- | --- | --- |
| O=C(NCc1cccc(C(F)(F)F)c1)C(C(=O)N1CCN(CCc2ccccc2)CC1)N1C(=O)[C@@H](N2C(=O)OC[C@@H]2c2ccccc2)[C@H]1/C=C/c1ccccc1 (mixture of isomers) [Example 38] | 85 | – |
| CC(C)N1CCN(C(=O)C(C(=O)NCc2cccc(C(F)(F)F)c2)N2C(=O)[C@@H](N3C(=O)OC[C@@H]3c3ccccc3)[C@H]2/C=C/c2ccccc2)CC1 (mixture of isomers) [Example 41] | 18.2 | – |
| O=C(NCc1cccc(C(F)(F)F)c1)C(C(=O)N1CCN(C2CCCCC2)CC1)N1C(=O)[C@@H](N2C(=O)OC[C@@H]2c2ccccc2)[C@H]1/C=C/c1ccccc1 (mixture of isomers) [Example 42] | 26.4 | – |
| O=C(NC(c1ccccc1)C(F)(F)F)C(CC(=O)N1CCC(N2CCCCC2)CC1)N1C(=O)C(N2C(=O)OCC2c2ccccc2)C1C=Cc1ccccc1 (single isomer, unassigned) [Example 623] | 0.85 | – |
| O=C(NC(c1ccccc1)C(F)(F)F)C(CC(=O)N1CCC(N2CCCCC2)CC1)N1C(=O)C(N2C(=O)OCC2c2ccccc2)C1C=Cc1ccccc1 (single isomer, unassigned) [Example 626] | 0.27 | – |
| CC(C)(C)OC(=O)C(C(=O)NCc1cccc(C(F)(F)F)c1)N1C(=O)C(N2C(=O)OCC2c2ccccc2)C1C=Cc1ccccc1 [Example 18, 2(RS)-(tert-Butoxycarbonyl)-2-[3(S)-(4(S)-phenyloxazolidin-2-on-3-yl)-4(R)-(2-styryl)azetidin-2-on-1-yl]acetic acid N-(3-trifluoromethylbenzyl)amide] | – | 35 |
| CC(C)(C)OC(=O)CC(C(=O)NCc1cccc(C(F)(F)F)c1)N1C(=O)C(N2C(=O)OCC2c2ccccc2)C1C=Cc1ccccc1 [Example 19, 2(S)-(tert-Butoxycarbonylmethyl)-2-[3(S)-(4(S)-phenyloxazolidin-2-on-3-yl)-4(R)-(2-styryl)azetidin-2-on-1-yl]acetic acid N-(3-trifluoromethylbenzyl)amide] | – | 35 |
| CC(C)(C)OC(=O)CCC(C(=O)NCc1cccc(C(F)(F)F)c1)N1C(=O)C(N2C(=O)OCC2c2ccccc2)C1C=Cc1ccccc1 [Example 20, 2(S)-(tert-Butoxycarbonylethyl)-2-[3(S)-(4(S)-phenyloxazolidin-2-on-3-yl)-4(R)-(2-styryl)azetidin-2-on-1-yl]acetic acid N-(3-trifluoromethylbenzyl)amide] | – | 35 |
| O=C(NCc1cccc(C(F)(F)F)c1)C(C(=O)N1CCC(N2CCCCC2)CC1)N1C(=O)C(N2C(=O)OCC2c2ccccc2)C1C=Cc1ccccc1 (stereo not shown) [Example 37] | 3.39 | 5.5 |
| O=C(NCc1cccc(C(F)(F)F)c1)C(C(=O)NC1CCN(Cc2ccccc2)CC1)N1C(=O)C(N2C(=O)OCC2c2ccccc2)C1C=Cc1ccccc1 (stereo not shown) [Example 39] | 13.3 | 23 |
| CCCCN1CCN(C(=O)C(C(=O)NCc2cccc(C(F)(F)F)c2)N2C(=O)C(N3C(=O)OCC3c3ccccc3)C2C=Cc2ccccc2)CC1 (stereo not shown) [Example 40] | 6.5 | 11 |
| O=C(CC(C(=O)NCc1cccc(C(F)(F)F)c1)N1C(=O)C(N2C(=O)OCC2c2ccccc2)C1C=Cc1ccccc1)NC1CCN(Cc2ccccc2)CC1 (stereo not shown) [Example 63] | 1.13 | 1.84 |
| O=C(NCc1cccc(C(F)(F)F)c1)[C@H](CC(=O)N1CCCN(Cc2ccccc2)CC1)N1C(=O)[C@@H](N2C(=O)OC[C@@H]2c2ccccc2)[C@H]1/C=C/c1ccccc1 [Example 82] | 5.12 | – |
| O=C(CC(C(=O)NCc1cccc(C(F)(F)F)c1)N1C(=O)C(N2C(=O)OCC2c2ccccc2)C1C=Cc1ccccc1)NC1CCN(Cc2ccccc2)C1 (stereo not shown) [Example 85] | 3.6 | 5.87 |
| O=C(CC[C@@H](C(=O)NCc1cccc(C(F)(F)F)c1)N1C(=O)[C@@H](N2C(=O)OC[C@@H]2c2ccccc2)[C@H]1/C=C/c1ccccc1)NCCN1CCCCC1 [Example 87] | – | 15 |
| O=C(NCc1cccc(C(F)(F)F)c1)[C@H](CCC(=O)N1CCN(N2CCCC2)CC1)N1C(=O)[C@@H](N2C(=O)OC[C@@H]2c2ccccc2)[C@H]1/C=C/c1ccccc1 [Example 91] | 1.99 | 3.24 |
| O=C(NCc1cccc(C(F)(F)F)c1)C(CCC(=O)N1CCN(Cc2ccccc2)CC1)N1C(=O)C(N2C(=O)OCC2c2ccccc2)C1C=Cc1ccccc1 (stereo not shown) [Example 95] | 1.08 | 1.76 |
| O=C(NCc1cccc(C(F)(F)F)c1)C(CCC(=O)N1CCN(Cc2ccc3c(c2)OCO3)CC1)N1C(=O)C(N2C(=O)OCC2c2ccccc2)C1C=Cc1ccccc1 (stereo not shown) [Example 96] | 2.66 | 4.35 |
| O=C(NCc1cccc(C(F)(F)F)c1)C(CCC(=O)N1CCN(CCC2CCCCC2)CC1)N1C(=O)C(N2C(=O)OCC2c2ccccc2)C1C=Cc1ccccc1 (stereo not shown) [Example 111] | 0.82 | 1.31 |
| O=C(NCc1cccc(C(F)(F)F)c1)C(CCC(=O)N1CCN(CCN2CCOCC2)CC1)N1C(=O)C(N2C(=O)OCC2c2ccccc2)C1C=Cc1ccccc1 (stereo not shown) [Example 112] | 0.8 | 1.34 |
| O=C(NCc1cccc(C(F)(F)F)c1)C(CCC(=O)N1CCN(CC2CCCCC2)CC1)N1C(=O)C(N2C(=O)OCC2c2ccccc2)C1C=Cc1ccccc1 (stereo not shown) [Example 120] | 0.46 | 0.75 |
| O=C(NCc1cccc(C(F)(F)F)c1)C(CCC(=O)N1CCN(CCc2ccccc2)CC1)N1C(=O)C(N2C(=O)OCC2c2ccccc2)C1C=Cc1ccccc1 (stereo not shown) [Example 136] | 33 | 11 |
| CCCCN1CCN(C(=O)CCC(C(=O)NCc2cccc(C(F)(F)F)c2)N2C(=O)C(N3C(=O)OCC3c3ccccc3)C2C=Cc2ccccc2)CC1 (stereo not shown) [Example 137] | 10.5 | 17 |
| CC(C)N1CCN(C(=O)CCC(C(=O)NCc2cccc(C(F)(F)F)c2)N2C(=O)C(N3C(=O)OCC3c3ccccc3)C2C=Cc2ccccc2)CC1 (stereo not shown) [Example 138] | 13 | 21 |
| O=C(NCc1cccc(C(F)(F)F)c1)C(CCC(=O)N1CCN(C2CCCCC2)CC1)N1C(=O)C(N2C(=O)OCC2c2ccccc2)C1C=Cc1ccccc1 (stereo not shown) [Example 139] | 5.84 | 9.5 |
| O=C(NCc1cc(F)cc(F)c1)[C@H](CCC(=O)N1CCN(C2CCCCC2)CC1)N1C(=O)[C@@H](N2C(=O)OC[C@@H]2c2ccccc2)[C@H]1/C=C/c1ccccc1 [Example 185] | 0.82 | – |
| COc1cccc(C(C)NC(=O)C(CCC(=O)N2CCN(C3CCCCC3)CC2)N2C(=O)C(N3C(=O)OCC3c3ccccc3)C2C=Cc2ccccc2)c1 (stereo not shown) [Example 203] | 1.5 | 2.46 |

Further lines, results first:

| Ki [nM] | IC50 [nM] | SMILES |
| --- | --- | --- |
| 1.17 | 1.77 | O=C(NCc1cccc(C(F)(F)F)c1)C(C(=O)N1CCC(CCN2CCCCC2)CC1)N1C(=O)C(N2C(=O)OCC2c2ccccc2)C1C=Cc1ccccc1 (stereo not shown) [Example 42A] |
| 6 | 9.79 | O=C(NCc1cccc(C(F)(F)F)c1)C(CC(=O)N1CCC(CCN2CCCCC2)CC1)N1C(=O)C(N2C(=O)OCC2c2ccccc2)C1C=Cc1ccccc1 (stereo not shown) [Example 86A] |
| 9.9 | 16.2 | O=C(NCc1cccc(C(F)(F)F)c1)C(CCC(=O)N1CCC(CCN2CCCCC2)CC1)N1C(=O)C(N2C(=O)OCC2c2ccccc2)C1C=Cc1ccccc1 (stereo not shown) [Example 120A] |
| 1.79 | 2.93 | CCCN1CCN(C(=O)CCC(C(=O)NCc2cccc(C(F)(F)F)c2)N2C(=O)C(N3C(=O)OCC3c3ccccc3)C2C=Cc2ccccc2)CC1 (stereo not shown) [Example 120B] |
| 3.9 | 6.3 | O=C(NC1(c2ccccc2)CCCC1)C(CC(=O)N1CCC(N2CCCCC2)CC1)N1C(=O)C(N2C(=O)OCC2c2ccccc2)C1C=Cc1ccccc1 (stereo not shown) [Example 132D] |
| 7.9 | 12.9 | O=C(NCc1cccc(C(F)(F)F)c1)C(CC(=O)N1CCC(CCN2CCCCC2)CC1)N1C(=O)C(N2C(=O)OCC2c2ccccc2)C1C=Cc1ccccc1 (stereo not shown) [Example 134A] |
| 27.5 | 44.8 | O=C(NCc1cccc(C(F)(F)F)c1)[C@@H](CC(=O)N1CCN(N2CCCC2)CC1)N1C(=O)[C@@H](N2C(=O)OC[C@@H]2c2ccccc2)[C@H]1/C=C/c1ccccc1 [Example 134B] |
| 5.58 | 9.1 | O=C(CC(C(=O)NCc1cccc(C(F)(F)F)c1)N1C(=O)C(N2C(=O)OCC2c2ccccc2)C1C=Cc1ccccc1)NC1CCN(Cc2ccccc2)CC1 (stereo not shown) [Example 134C] |
| 3.7 | 6 | O=C(NCc1cccc(C(F)(F)F)c1)C(CC(=O)N1CCC(CN2CCCCC2)CC1)N1C(=O)C(N2C(=O)OCC2c2ccccc2)C1C=Cc1ccccc1 (stereo not shown) [Example 134G] |
| 3.25 | 5.29 | CC(C)(NC(=O)C(CC(=O)N1CCC(N2CCCCC2)CC1)N1C(=O)C(N2C(=O)OCC2c2ccccc2)C1C=Cc1ccccc1)c1ccccc1 (stereo not shown) [Example 134J] |
| – | ~50 | CCN1CCC[C@H]1CNC(=O)CC[C@@H](C(=O)N[C@@H]1CCCc2ccccc21)N1C(=O)[C@@H](N2C(=O)OC[C@@H]2c2ccccc2)[C@H]1/C=C/c1ccccc1 [Example 221AI] |
